How the values were obtained:
Test in all cases: relative viability (nuclei count vs DMSO), 5 days (fraction); higher = more cells survive
NCI-H2085 = tested on: NCI-H2085
Method in brief: (§1)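 Medians of duplicate plates are given as relative viability. That measure is the nuclei count in treated wells divided by the count in vehicle wells. Counts were taken on 4× images of lung cancer cell lines in 1536-well plates, 5 days after pin-tool dosing the day after seeding with one drug alone or a fixed anchor-drug dose plus five library-drug doses (not always all listed) in √10 steps.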

LCLC-103H = tested on: LCLC-103H
Method in brief: as §1

LC-2-ad = tested on: LC-2-ad
Method in brief: as §1

A-427 = tested on: A-427
Method in brief: as §1

SK-MES-1 = tested on: SK-MES-1
Method in brief: as §1

COR-L 105 = tested on: COR-L 105
Method in brief: as §1

NCI-H441 = tested on: NCI-H441
Method in brief: as §1

COR-L23 = tested on: COR-L23
Method in brief: as §1

NCI-H647 = tested on: NCI-H647
Method in brief: as §1

NCI-H2342 = tested on: NCI-H2342
Method in brief: as §1

NCI-H1651 = tested on: NCI-H1651
Method in brief: as §1

HCC-44 = tested on: HCC-44
Method in brief: as §1

ChaGo-K-1 = tested on: ChaGo-K-1
Method in brief: as §1

NCI-H322M = tested on: NCI-H322M
Method in brief: as §1

NCI-H1915 = tested on: NCI-H1915
Method in brief: as §1

NCI-H2126 = tested on: NCI-H2126
Method in brief: as §1

NCI-H23 = tested on: NCI-H23
Method in brief: as §1

NCI-H1993 = tested on: NCI-H1993
Method in brief: as §1

H3255 = tested on: H3255
Method in brief: as §1

NCI-H2087 = tested on: NCI-H2087
Method in brief: as §1

NCI-H520 = tested on: NCI-H520
Method in brief: as §1

RERF-LC-KJ = tested on: RERF-LC-KJ
Method in brief: as §1

Question: Which results are given for `Cc1cn(-c2cc(NC(=O)c3ccc(C)c(Nc4nccc(-c5cccnc5)n4)c3)cc(C(F)(F)F)c2)cn1` [Nilotinib] + Nc1nc2[nH]cc(CCc3ccc(C(=O)N[C@@H](CCC(=O)O)C(=O)O)cc3)c2c(=O)[nH]1 [Pemetrexed] (partner 0.2 µM)?
Answer: relative viability (NCI-H2085; first compound 0.001 µM): 0.981; relative viability (NCI-H2085; first compound 0.003162 µM): 0.907; relative viability (NCI-H2085; first compound 0.01 µM): 1; relative viability (NCI-H2085; first compound 0.03162 µM): 0.932; relative viability (NCI-H2085; first compound 0.1 µM): 0.562; relative viability (LCLC-103H; first compound 0.001 µM): 0.447; relative viability (LCLC-103H; first compound 0.003162 µM): 0.409; relative viability (LCLC-103H; first compound 0.01 µM): 0.438; relative viability (LCLC-103H; first compound 0.03162 µM): 0.467; relative viability (LCLC-103H; first compound 0.1 µM): 0.351; relative viability (LC-2-ad; first compound 0.001 µM): 0.248; relative viability (LC-2-ad; first compound 0.003162 µM): 0.251; relative viability (LC-2-ad; first compound 0.01 µM): 0.257; relative viability (LC-2-ad; first compound 0.03162 µM): 0.251; relative viability (LC-2-ad; first compound 0.1 µM): 0.248; relative viability (A-427; first compound 0.003162 µM): 0.963; relative viability (A-427; first compound 0.01 µM): 0.952; relative viability (A-427; first compound 0.1 µM): 0.852; relative viability (SK-MES-1; first compound 0.001 µM): 0.958; relative viability (SK-MES-1; first compound 0.003162 µM): 0.841; relative viability (SK-MES-1; first compound 0.01 µM): 1.05; relative viability (SK-MES-1; first compound 0.03162 µM): 0.868; relative viability (SK-MES-1; first compound 0.1 µM): 0.503; relative viability (COR-L 105; first compound 0.001 µM): 0.975; relative viability (COR-L 105; first compound 0.003162 µM): 1.17; relative viability (COR-L 105; first compound 0.01 µM): 1.55; relative viability (COR-L 105; first compound 0.03162 µM): 1.13; relative viability (COR-L 105; first compound 0.1 µM): 1.15; relative viability (NCI-H441; first compound 0.001 µM): 0.261; relative viability (NCI-H441; first compound 0.003162 µM): 0.26; relative viability (NCI-H441; first compound 0.01 µM): 0.225; relative viability (NCI-H441; first compound 0.03162 µM): 0.229; relative viability (NCI-H441; first compound 0.1 µM): 0.186; relative viability (COR-L23; first compound 0.001 µM): 0.187; relative viability (COR-L23; first compound 0.003162 µM): 0.183; relative viability (COR-L23; first compound 0.01 µM): 0.19; relative viability (COR-L23; first compound 0.03162 µM): 0.163; relative viability (COR-L23; first compound 0.1 µM): 0.163; relative viability (NCI-H647; first compound 0.001 µM): 0.158; relative viability (NCI-H647; first compound 0.003162 µM): 0.158; relative viability (NCI-H647; first compound 0.01 µM): 0.118; relative viability (NCI-H647; first compound 0.03162 µM): 0.138; relative viability (NCI-H647; first compound 0.1 µM): 0.118; relative viability (NCI-H2342; first compound 0.001 µM): 0.718; relative viability (NCI-H2342; first compound 0.003162 µM): 0.753; relative viability (NCI-H2342; first compound 0.01 µM): 0.793; relative viability (NCI-H2342; first compound 0.03162 µM): 0.718; relative viability (NCI-H2342; first compound 0.1 µM): 0.428; relative viability (NCI-H1651; first compound 0.001 µM): 0.571; relative viability (NCI-H1651; first compound 0.003162 µM): 0.616; relative viability (NCI-H1651; first compound 0.01 µM): 0.732; relative viability (NCI-H1651; first compound 0.03162 µM): 0.556; relative viability (NCI-H1651; first compound 0.1 µM): 0.249; relative viability (HCC-44; first compound 0.001 µM): 0.662; relative viability (HCC-44; first compound 0.003162 µM): 0.574; relative viability (HCC-44; first compound 0.01 µM): 0.613; relative viability (HCC-44; first compound 0.1 µM): 0.66; relative viability (ChaGo-K-1; first compound 0.001 µM): 0.27; relative viability (ChaGo-K-1; first compound 0.003162 µM): 0.244; relative viability (ChaGo-K-1; first compound 0.01 µM): 0.228; relative viability (ChaGo-K-1; first compound 0.03162 µM): 0.229; relative viability (ChaGo-K-1; first compound 0.1 µM): 0.215; relative viability (NCI-H322M; first compound 0.001 µM): 0.757; relative viability (NCI-H322M; first compound 0.003162 µM): 0.774; relative viability (NCI-H322M; first compound 0.01 µM): 0.576; relative viability (NCI-H322M; first compound 0.03162 µM): 0.593; relative viability (NCI-H322M; first compound 0.1 µM): 0.645; relative viability (NCI-H1915; first compound 0.001 µM): 0.435; relative viability (NCI-H1915; first compound 0.003162 µM): 0.427; relative viability (NCI-H1915; first compound 0.01 µM): 0.532; relative viability (NCI-H1915; first compound 0.03162 µM): 0.449; relative viability (NCI-H1915; first compound 0.1 µM): 0.438; relative viability (NCI-H2126; first compound 0.001 µM): 0.68; relative viability (NCI-H2126; first compound 0.003162 µM): 0.767; relative viability (NCI-H2126; first compound 0.01 µM): 0.79; relative viability (NCI-H2126; first compound 0.03162 µM): 0.656; relative viability (NCI-H2126; first compound 0.1 µM): 0.47; relative viability (NCI-H23; first compound 0.001 µM): 0.739; relative viability (NCI-H23; first compound 0.003162 µM): 0.553; relative viability (NCI-H23; first compound 0.01 µM): 0.494; relative viability (NCI-H23; first compound 0.03162 µM): 0.575; relative viability (NCI-H23; first compound 0.1 µM): 0.368; relative viability (NCI-H1993; first compound 0.001 µM): 0.574; relative viability (NCI-H1993; first compound 0.003162 µM): 0.685; relative viability (NCI-H1993; first compound 0.01 µM): 0.649; relative viability (NCI-H1993; first compound 0.03162 µM): 0.589; relative viability (NCI-H1993; first compound 0.1 µM): 0.367; relative viability (H3255; first compound 0.001 µM): 0.528; relative viability (H3255; first compound 0.003162 µM): 0.671; relative viability (H3255; first compound 0.01 µM): 0.578; relative viability (H3255; first compound 0.03162 µM): 0.579; relative viability (H3255; first compound 0.1 µM): 0.523; relative viability (NCI-H2087; first compound 0.001 µM): 0.67; relative viability (NCI-H2087; first compound 0.003162 µM): 0.745; relative viability (NCI-H2087; first compound 0.01 µM): 0.555; relative viability (NCI-H2087; first compound 0.03162 µM): 0.614; relative viability (NCI-H2087; first compound 0.1 µM): 0.341; relative viability (NCI-H520; first compound 0.001 µM): 0.591; relative viability (NCI-H520; first compound 0.003162 µM): 0.674; relative viability (NCI-H520; first compound 0.01 µM): 0.717; relative viability (NCI-H520; first compound 0.03162 µM): 0.578; relative viability (NCI-H520; first compound 0.1 µM): 0.556; relative viability (RERF-LC-KJ; first compound 0.001 µM): 0.508; relative viability (RERF-LC-KJ; first compound 0.003162 µM): 0.6; relative viability (RERF-LC-KJ; first compound 0.01 µM): 0.454; relative viability (RERF-LC-KJ; first compound 0.03162 µM): 0.422; relative viability (RERF-LC-KJ; first compound 0.1 µM): 0.274
